Laboratory results as given in patent US10888545B2, “Compositions and methods for treating estrogen-related medical disorders” (THE BOARD OF TRUSTEES OF THE UNIVERSITY OF ILLINOIS, priority 2012, dated 2021).
Read-outs that look alike come from different tables or passages of the source.

Key:
[1] = Plasma levels of BTC after oral administration to mice; format: in vivo; conditions: single oral dose 10 mg/kg, ovariectomized athymic nude mice
[2] = system: Ishikawa human endometrial cancer cells; conditions: references 16-19; cited from earlier work
T47D:A18/PKCα cells [3] = test: DNA growth assay (2D culture), T47D:A18/PKCα; format: cell-based; conditions: E2-free media, 1 nM, 10 nM, 100 nM
T47D:A18/neo cells [4] = test: DNA growth assay (2D culture), T47D:A18/neo; format: cell-based; conditions: only the higher concentration, 100 nM, E2 1 nM
[5] = Body weights of mice bearing T47D:A18/neo tumors; format: in vivo; conditions: seven week treatment, 1.5 mg/day p.o.
Text: B) Body weights of treated mice from (A). C) Uterine weights from mice in (A). Weights are reported as uterine weight (mg)/body weight (g). *, P<0.05 versus control. Graphs show mean SEM.
Since BTC and TTC-352 treatment result in growth of T47D:A18/neo cells in 2D culture (FIGS. 1C and 1E) and in 3D […] (FIG. 2A), we next sought to determine if BTC and TTC-352 could sustain the growth of T47D:A18/neo tumors in vivo. […] Additionally, no significant weight loss was observed over the seven week treatment period (FIG. 5B).

[6] = system: ERα transcriptional activity in T47D:A18/neo cells; format: cell-based
T47D:A18/PKCα cells [7] = test: Colony formation assay in […], T47D:A18/PKCα; format: cell-based; conditions: 3D culture, 10 days; E2 1 nM, BTC 100 nM, TTC-352 100 nM
Description: (§1) Colony formation assay in […] Matrix. […] (Becton Dickinson, Franklin Lakes, N.J. USA) was thawed overnight at 4° C. Twelve-well plates were coated with 200 μL […]/well and incubated at 37° C. for 30 min. Cells were suspended at 5×103 in 400 μL of phenol red-free RPMI 1640 and spread onto pre-gelled […] and allowed to incubate at 37° C. for 30 minutes, and 360 μL of treatment media containing 40 μL […] was then added. Plates were incubated at 37° C. for 10 days; medium containing 10% […] was replaced to the top of the […] every 3 days. Colonies were stained with crystal violet on day 10 and each well was counted by light microscopy (20×).
(§2) These concentrations were selected on the basis of proliferative effects in 2D cultures.

uteri [8] = test: Uterine weights of ovariectomized athymic mice (7 weeks); format: in vivo; conditions: following 7 weeks of treatment; 1.5 mg/day p.o. (E2: capsule)
[9] = system: ERα transcriptional activity in T47D:A18/PKCα cells; test: ERE-luciferase reporter assay, T47D:A18/PKCα; format: cell-based; conditions: for ER agonist character in T47D:A18/PKCα cells in vitro: ERE-luciferase, 1 nM, 10 nM, 100 nM
T47D:A18/PKCα tumors = test: T47D:A18/PKCα xenograft tumor regression; format: in vivo, mice; conditions: for persistence of T47D:A18/PKCα tumor regression after end of treatment: after two weeks of 1.5 mg/day p.o.; for T47D:A18/PKCα mean tumor size / T47D:A18/PKCα tumor regression: at two weeks; for T47D:A18/PKCα mean tumor size: 1.5 mg/day p.o.; for T47D:A18/PKCα tumor regression: 1.5 mg/day p.o. (E2: capsule), start ~0.5 cm^2 = 100%
ERα = target: T1, ERα (Homo sapiens, UniProt P03372); test: ERα localization in T47D:A18/PKCα tumors by immunofluorescence; format: in vivo, mice; conditions: immunofluorescence staining of tumors
T1 sequence (P03372 1-595): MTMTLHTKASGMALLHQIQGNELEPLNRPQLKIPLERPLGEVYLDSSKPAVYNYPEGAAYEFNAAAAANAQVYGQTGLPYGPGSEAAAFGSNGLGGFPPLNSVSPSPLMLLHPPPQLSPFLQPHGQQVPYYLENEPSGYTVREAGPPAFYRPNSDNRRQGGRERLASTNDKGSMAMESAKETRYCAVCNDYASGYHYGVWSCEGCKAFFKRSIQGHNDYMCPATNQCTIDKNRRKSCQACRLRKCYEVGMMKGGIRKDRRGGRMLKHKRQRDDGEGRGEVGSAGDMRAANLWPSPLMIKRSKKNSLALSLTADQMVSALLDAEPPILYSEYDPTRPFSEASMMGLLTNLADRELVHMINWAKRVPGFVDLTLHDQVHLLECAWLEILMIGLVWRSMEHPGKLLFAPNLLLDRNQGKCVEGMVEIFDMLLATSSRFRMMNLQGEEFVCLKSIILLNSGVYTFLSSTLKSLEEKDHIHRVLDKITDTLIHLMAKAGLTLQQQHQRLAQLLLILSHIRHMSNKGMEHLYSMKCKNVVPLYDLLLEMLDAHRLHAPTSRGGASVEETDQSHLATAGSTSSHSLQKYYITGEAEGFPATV
Description: Tumor immunofluorescence confocal microscopy and co-localization analysis. Tumor sections (4 μm) were cut from paraffin blocks and prepared for IF staining by deparaffinization and rehydration. Antigen retrieval was performed by incubating slides in Tris-EDTA (pH=9.0) buffer at 90° C. and allowed to cool at room temperature for 45 min. Slides were blocked with antibody diluent (DAKO, Carpinteria, Calif. USA) for 20 min followed by primary antibody at 1:100 in antibody diluent for 1 h at room temperature. Slides were incubated with fluorescence-conjugated secondary antibodies at 1:100 in antibody diluent for 45 min at room temperature followed by DAPI (4′, 6-diamidino-2-phenylindole [1 μg/mL], DAKO, Carpinteria, Calif. USA) for 15 min. Slides were mounted with Vectashield mounting media (Vector Laboratories, Burlingame, Calif. USA). Confocal analysis was performed with a Zeiss LSM 510 microscope (Carl Zeiss, Incorporated, North America, Thornwood, N.Y. USA).
We have previously reported the possible involvement of an extranuclear ER in E2-induced tumor regression (11, 15).

T47D:A18/neo tumors = test: T47D:A18/neo xenograft tumor growth; format: in vivo, mice; conditions: for stimulation of growth of T47D:A18/neo xenograft tumors in vivo: 1.5 mg/day p.o., seven weeks; for T47D:A18/neo average tumor size: following seven weeks of treatment, 1.5 mg/day p.o. (E2: capsule)
T47D:A18/neo cells [10] = test: Colony formation assay in […], T47D:A18/neo; format: cell-based; conditions: 3D culture, 10 days; E2 1 nM, BTC 100 nM, TTC-352 100 nM
Description: as §1, §2

[11] = system: MCF-7 human mammary cancer cells; conditions: references 16-19; cited from earlier work
[12] = juvenile female rats, after 3 days of drug administration; cited from earlier work
[13] = system: T47D-Tam1 xenograft tumors; test: T47D-Tam1 TAM-resistant xenograft tumors (Example 11); format: in vivo, mice; conditions: TTC-352 1.5 mg/day p.o. daily for seven weeks; E2 capsule
[14] = silastic capsules (1.0 cm) implanted subcutaneously; reference 14; cited from earlier work
[15] = system: T47D/PKCα xenograft tumors; test: T47D/PKCα TAM-resistant xenograft tumors (Example 11); format: in vivo, mice; conditions: TTC-352 or raloxifene 1.5 mg/day p.o., seven weeks, also after withdrawal; E2 capsule
uteri [16] = conditions: references 29-32, cited from earlier work
T47D:A18/PKCα cells [17] = conditions: reference 11; cited from earlier work
[18] = humans; cited from earlier work
uteri [19] = test: Uterine weights of mice (Example 11); format: in vivo; conditions: TTC-352 1.5 mg/day

Structure (SMILES) | estrogen agonist/antagonist character in Ishikawa cells [2] | potency in Ishikawa cells relative to E2 [2] | proliferation of T47D:A18/PKCα cells (DNA content) (T47D:A18/PKCα cells [3]) | effect on the proliferation of T47D:A18/neo cells relative to E2 (T47D:A18/neo cells [4]) | body weight of treated mice [5] | T47D:A18/PKCα colony formation in MATRIGEL (T47D:A18/PKCα cells [7]) | uterine weights of ovariectomized mice (uteri [8]) | ER agonist character in T47D:A18/PKCα cells in vitro [9] | persistence of T47D:A18/PKCα tumor regression after end of treatment (T47D:A18/PKCα tumors) | T47D:A18/PKCα mean tumor size (T47D:A18/PKCα tumors) | T47D:A18/PKCα tumor regression (T47D:A18/PKCα tumors) | ERα localization in regressing T47D:A18/PKCα tumors (ERα) | stimulation of growth of T47D:A18/neo xenograft tumors in vivo (T47D:A18/neo tumors) | T47D:A18/neo average tumor size (T47D:A18/neo tumors) | T47D:A18/neo colony growth in MATRIGEL (T47D:A18/neo cells [10]) | estrogen agonist/antagonist character in MCF-7 cells [11] | T47D-Tam1 xenograft tumor response [13] | T47D/PKCα xenograft tumor response [15] | further results
Oc1ccc(-c2cc3ccc(O)cc3s2)cc1 [BTC, 2-(4-hydroxyphenyl)benzo[b]thiophen-6-ol] | nanomolar estrogen agonists | three orders of magnitude below that of E2 | proliferated in the presence of BTC and TTC-352 at all concentrations tested | comparable to E2(1 nM) treatment | no effect | inhibited | no significant increase in the uterine weights | act as ER agonists | sustained for at least four weeks post-treatment | ~0.07 cm^2 | ~88% | exit of ERα from the nucleus | neither compound was able to significantly stimulate the growth | ~0.04 cm^2 | stimulated | estrogen agonist |  |  | concentration at 6 h ([1]; female, mouse, plasma, 6 h): 10 ng/mL; peak plasma concentration ([1]; at 30 min): 40 ng/mL; ERα transcriptional activity (ERE-luciferase) in T47D:A18/neo cells [6]: increase in ERα transcriptional activity; ERE-luciferase induction in T47D:A18/PKCα cells compared with T47D:A18/neo cells ([9]; 100 nM and 10 nM): more sensitive than T47D:A18/neo cells
Oc1ccc(-c2sc3cc(O)ccc3c2Oc2ccc(OCCN3CCCCC3)cc2)cc1 [DMA, Desmethylarzoxifene] |  |  |  |  |  |  |  |  |  |  |  |  |  |  |  |  |  |  | remaining drug in plasma [12]: not observed above detection limits
C[C@]12CC[C@@H]3c4ccc(O)cc4CC[C@H]3[C@@H]1CC[C@@H]2O [E2, 17β-estradiol, reference compound] |  |  |  |  |  | inhibited | significant proliferative actions |  |  |  | ~98% |  |  | ~0.35 cm^2 | stimulated |  | growth is inhibited by E2 treatment | growth is inhibited by E2 treatment | mean serum E2 level [14]: 379.5 pg/mL
O=C(c1ccc(OCCN2CCCCC2)cc1)c1c(-c2ccc(O)cc2)sc2cc(O)ccc12 [RAL, raloxifene] | estrogen antagonist |  |  |  |  |  |  |  | failure of RAL-induced regression to persist after drug withdrawal |  | ~50% |  |  |  |  | estrogen antagonist |  | caused tumor regression, however, drug withdrawal led to relapse | luminal epithelial cell thickness in ovariectomized rats (uteri [16]; doses up to 10 mg/kg/day): did not increase luminal epithelial cell thickness; uterine weight in ovariectomized rats (uteri [16]; minimally effective dose): did not increase uterine weight; T47D:A18/PKCα MATRIGEL colony formation (previously reported) (T47D:A18/PKCα cells [17]): unable to inhibit MATRIGEL colony formation; oral clearance [18]: 441 kg⁻¹ h⁻¹
CC/C(=C(\c1ccccc1)c1ccc(OCCN(C)C)cc1)c1ccccc1 [TAM, tamoxifen] |  |  |  |  |  |  | significant proliferative actions |  |  |  |  |  |  |  |  |  |  | TAM-resistant | 
Oc1ccc(Oc2sc3cc(O)ccc3c2-c2ccc(F)cc2)cc1 [TTC-352, 3-(4-fluorophenyl)-2-(4-hydroxyphenoxy)benzo[b]thiophen-6-ol] | nanomolar estrogen agonists | three orders of magnitude below that of E2 | proliferated in the presence of BTC and TTC-352 at all concentrations tested | comparable to E2(1 nM) treatment | no effect | inhibited | no significant increase in the uterine weights | act as ER agonists | sustained for at least four weeks post-treatment | ~0.18 cm^2 | ~70% | exit of ERα from the nucleus | neither compound was able to significantly stimulate the growth | ~0.1 cm^2 | stimulated | estrogen agonist | tumor regression comparable to that of E2-treated tumors | tumor regression comparable to that of E2-treated tumors | uterine weight in mice (uteri [19]): did not increase uterine weight; ERα transcriptional activity (ERE-luciferase) in T47D:A18/neo cells ([6]; 24 hours): increase in ERα transcriptional activity
